Consider 2 compounds from US20250302839A1 (D&D Biopharmaceuticals, Inc., priority 2024, published 2025).

Each structure is given as a SMILES string. Where only a bound is given, the exact number is not on record here.

The test system of series [1] is human donor cornea. Nature of the series: Penetration of riboflavin into human donor cornea, evaluated by fluorescence microscopy. Type of series: in vitro ADME.
Series [2] has as its system human donor cornea. Nature of the series: Pre- and post-treatment evaluation of corneal integrity (epithelium, stroma, endothelium; specular microscopy). The following applies: 10 mg/ml glutaric anhydride in 0.3M sodium phosphate buffer (pH 8.5), 60 seconds. The protocol: The agent used in this example was glutaric anhydride (GA). Paired human donor corneas were evaluated prior to treatment and immediately after treatment for intact epithelium, stroma, and endothelium. Riboflavin fluorescence for the GA treatment and the non-GA treatment control were compared. The test human cornea sample was labeled 21-095656 OD, and the control human cornea sample was labeled 21-095656 OS.
One pair human corneas were recovered by in situ removal by a certified eyebank technician and placed in LIFE4° C. and stored in Bausch & Lomb 20 ml viewing chambers, and stored at 2-8° C. Corneas were shipped on wet ice overnight to the treatment facility. Upon arrival, the corneas were warmed for 2±2 hours at 35° C. and evaluated for corneal integrity. […] At the time of the study, corneas were warmed for 2±2 hours at 35° C., and evaluated for corneal integrity.
The control and treated cornea samples were placed in a petri dish with the epithelial side up in a laminar flow hood with enough Life4° C. corneal preservation medium to fill the endothelial side of the human cornea with medium. […] Each sample was analyzed before treatment (FIGS. 1A-1C).
A single examiner performed all measurements. Corneal endothelium was evaluated utilizing a Konan Eyebank KeratoAnalyzer. […] Number of cells analyzed. • 8. […]

On to `O=C1CCCC(=O)O1` [glutaric anhydride], for which the “disruption of corneal cell junctures permitting riboflavin diffusion” value in the series with human donor cornea [1] (10 mg/ml glutaric anhydride in 0.3M sodium phosphate buffer (pH 8.5), 1.0 ml for 60 seconds, continuous drops) was “disrupt cell junctures to permit diffusion of riboflavin through the epithelium and deep into the corneal stroma”. In addition, the “effect on corneal epithelium, stroma and endothelium post-treatment” value in the series on human donor cornea [2] is on record as “did not adversely affect the corneal epithelium, stroma or endothelium”.
Consider `Cc1cc2nc3c(=O)[nH]c(=O)nc-3n(C[C@H](O)[C@H](O)[C@H](O)CO)c2cc1C` [riboflavin, reference compound], for which the “time until riboflavin fluorescence was exhibited” value in the series on human donor cornea [1] (test cornea 21-095656 OD, after 10 mg/ml buffered glutaric anhydride solution for 60 seconds, riboflavin 1.46 mg/ml in PBS, 2 x 0.5 mL, intact epithelium) was no more than 2 min.
